{
  "source": "patent US20210154170A1",
  "about": "“METHODS OF TREATING NEUROPATHIC PAIN” (Biogen MA Inc., priority 2018, published 2021)",
  "key": {"[1]": {"test_system": "patients with lumbosacral radiculopathy", "settings": "PLSR, 350 mg bid, Phase 2, cited from earlier work"}, "[2]": {"test": "Free fraction of Example 1 in plasma", "format": "in vitro ADME", "settings": "human"}, "healthy subjects": {"test_system": "healthy subjects", "test": "Phase 1 valproic acid interaction study, safety and tolerability", "excerpt": "• To evaluate the safety and tolerability of BIIB074 when administered alone and when coadministered with the UGT inhibitor valproic acid. • The endpoints that relate to this objective are the incidence of adverse events (AEs) and serious adverse events (SAEs), and changes in clinical laboratory parameters, vital signs, 12-lead electrocardiograms (ECGs), and Columbia Suicide Severity Rating Scale (C-SSRS) assessments. • To evaluate the effect of the UGT inhibitor valproic acid on the PK of the M13, M14, and M16 metabolites of BIIB074. • The endpoints that relate to this objective are: Cmax, AUCinf, AUClast, Tmax, Tlast, t1/2, and metabolite to parent ratio in AUC (MRAUC) of the M13, M14, and M16 metabolites of BIIB074\n1. A single oral dose of BIIB074 administered in the morning on Days 1 and 16 following an 8-hour fast. The Day 16 dose was coadministered with the morning dose of valproic acid. 2. Valproic acid 500 mg TID was administered on Days 8 through 22. The morning dose on Day 16 was coadministered with BIIB074 following an 8-hour fast. 3. Blood samples for BIIB074 and metabolite PK collected predose and through 168 hours postdose on Days 1 through 8 and Days 16 through 23. 4. Single blood samples collected on Days 13 through 15 prior to the morning dose of valproic acid only, in order to determine valproic acid trough levels."}, "dogs": {"test_system": "dogs", "test": "Preclinical safety pharmacology, cardiovascular parameters", "format": "in vivo, dog", "settings": "data not shown", "excerpt": "The 36 day treatment duration in this study was rationally designed to determine whether tolerance developed for any potential effects of BIIB074 on SBP or DBP, since BP effects resolved by day 28 in the earlier phase 1 trial. The data from this study show a slight trend towards a decrease in the BP difference between BIIB074 and placebo between day 4 and day 35, although differences were minimal at all time points. […] Thus, the body of evidence, encompassing clinical and preclinical studies, supports safety and minimal effects of BIIB074 on BP/cardiovascular parameters."}, "healthy participants": {"test_system": "healthy participants", "test": "Phase 1 ABPM study, safety (adverse events, ECG)", "format": "in vivo, human", "description": "This was a Phase 1, randomized, double-blind, placebo-controlled, repeat dose, 2-period cross-over study to investigate the effect of BIIB074 300-400 mg bid on ambulatory blood pressure (ABP) in healthy participants (FIG. 2). The study comprised: screening (to occur a maximum of 30 days before the first baseline assessment); two 36-day treatment periods, each preceded by a baseline visit and separated by a 7-day washout (to minimize possible carry over effects); and a follow-up period of 7-14 days after last dose. Prior to this study, no females had received BIIB074; for this reason, a single dose BIIB074 session at the dose level of 400 mg was also conducted in female participants one week prior to the period 1 baseline visit. Following this session, some participants were predicted to exceed the predefined PK limit (area under the plasma concentration-time curve [AUC] 97 μg·h/mL) when receiving 400 mg bid at steady state. Therefore, in the subsequent phases of the study, all female participants received a lower dose of 300 mg bid (males received 400 mg bid).\nSafety was assessed through monitoring of adverse events (AEs), vital signs, electrocardiogram (ECG), and laboratory safety tests (including clinical chemistry).\nThe safety population was the primary analysis population for this study and included all participants who received one or more doses of BIIB074. The PK population was defined as participants in the safety population for whom a PK sample was obtained and analyzed."}, "[3]": {"settings": "400 mg single dose, females, N = 22"}, "[4]": {"settings": "300-400 mg bid repeat dosing, N = 54"}},
  "note": "Like-named read-outs stand apart in the source and are kept apart here.",
  "data": [
    {"smiles": "Cl.NC(=O)[C@@H]1CC[C@H](c2ccc(OCc3ccccc3F)cc2)N1", "note": "[Example 1, (5R)-5-(4-{[(2-Fluorophenyl)methyl]oxy}phenyl)-L-prolinamide hydrochloride]", "values": [
      {"measurement": "Clinical efficacy", "setting": "[1]; hydrochloride", "value": "EFFICACY OBSERVED in"},
      {"measurement": "Clinical efficacy", "setting": "[1]; listed as CNV1014802, hydrochloride", "value": "demonstrated clinical benefit"},
      {"measurement": "fraction unbound", "setting": "[2]; listed as 150 mg tid", "value": 0.032},
      {"measurement": "fraction unbound", "setting": "[2]; listed as 200 mg bid", "value": 0.036},
      {"measurement": "fraction unbound", "setting": "[2]; listed as 250 mg tid", "value": 0.032},
      {"measurement": "fraction unbound", "setting": "[2]; listed as 350 mg bid", "value": 0.032},
      {"measurement": "Abdominal pain", "setting": "healthy subjects; human, in vivo", "value": "0 n (%)"},
      {"measurement": "Asthenia", "setting": "healthy subjects; human, in vivo", "value": "0 n (%)"},
      {"measurement": "Cardiac disorders", "setting": "healthy subjects; human, in vivo", "value": "0 n (%)"},
      {"measurement": "Diarrhoea", "setting": "healthy subjects; human, in vivo", "value": "0 n (%)"},
      {"measurement": "Dizziness", "setting": "healthy subjects; human, in vivo", "value": "0 n (%)"},
      {"measurement": "Dyspepsia", "setting": "healthy subjects; human, in vivo", "value": "0 n (%)"},
      {"measurement": "Events leading to drug withdrawal", "setting": "healthy subjects; human, in vivo", "value": "0 n (%)"},
      {"measurement": "Events leading to study withdrawal", "setting": "healthy subjects; human, in vivo", "value": "0 n (%)"},
      {"measurement": "Faeces soft", "setting": "healthy subjects; human, in vivo", "value": "0 n (%)"},
      {"measurement": "Gastrointestinal disorders", "setting": "healthy subjects; human, in vivo", "value": "1 (3.3) n (%)"},
      {"measurement": "General disorders and administration site conditions", "setting": "healthy subjects; human, in vivo", "value": "0 n (%)"},
      {"measurement": "Glossodynia", "setting": "healthy subjects; human, in vivo", "value": "1 (3.3) n (%)"},
      {"measurement": "Headache", "setting": "healthy subjects; human, in vivo", "value": "1 (3.3) n (%)"},
      {"measurement": "Nausea", "setting": "healthy subjects; human, in vivo", "value": "0 n (%)"},
      {"measurement": "Nervous system disorders", "setting": "healthy subjects; human, in vivo", "value": "1 (3.3) n (%)"},
      {"measurement": "Non-cardiac chest pain", "setting": "healthy subjects; human, in vivo", "value": "0 n (%)"},
      {"measurement": "Number of subjects with any event", "setting": "healthy subjects; human, in vivo", "value": "2 (6.7) n (%)"},
      {"measurement": "Pallor", "setting": "healthy subjects; human, in vivo", "value": "0 n (%)"},
      {"measurement": "Palpitations", "setting": "healthy subjects; human, in vivo", "value": "0 n (%)"},
      {"measurement": "Pruritus", "setting": "healthy subjects; human, in vivo", "value": "0 n (%)"},
      {"measurement": "Related event", "setting": "healthy subjects; human, in vivo", "value": "0 n (%)"},
      {"measurement": "Related serious event", "setting": "healthy subjects; human, in vivo", "value": "0 n (%)"},
      {"measurement": "Serious event", "setting": "healthy subjects; human, in vivo", "value": "0 n (%)"},
      {"measurement": "Severity: Mild", "setting": "healthy subjects; human, in vivo", "value": "2 (6.7) n (%)"},
      {"measurement": "Severity: Moderate", "setting": "healthy subjects; human, in vivo", "value": "0 n (%)"},
      {"measurement": "Severity: Severe", "setting": "healthy subjects; human, in vivo", "value": "0 n (%)"},
      {"measurement": "Skin and subcutaneous tissue disorders", "setting": "healthy subjects; human, in vivo", "value": "0 n (%)"},
      {"measurement": "TEAEs considered related to BIIB074", "setting": "healthy subjects; human, in vivo", "value": "No TEAEs were considered related to BIIB074"},
      {"measurement": "Vascular disorders", "setting": "healthy subjects; human, in vivo", "value": "0 n (%)"},
      {"measurement": "Vomiting", "setting": "healthy subjects; human, in vivo", "value": "0 n (%)"},
      {"measurement": "Safety conclusion", "setting": "healthy subjects; in vivo", "value": "safe and well tolerated"},
      {"measurement": "Fatal event", "setting": "healthy subjects; per treatment period", "value": "0 n (%)"},
      {"measurement": "Effects on cardiovascular parameters", "setting": "dogs", "value": "no effects"},
      {"measurement": "Severity of all AEs", "setting": "healthy participants; 400 mg single dose in females", "value": "mild in nature"},
      {"measurement": "Diarrhoea", "setting": "healthy participants; [3]", "value": "0 n (%)"},
      {"measurement": "Dizziness", "setting": "healthy participants; [3]", "value": "5 (23) n (%)"},
      {"measurement": "Fatigue", "setting": "healthy participants; [3]", "value": "0 n (%)"},
      {"measurement": "Headache", "setting": "healthy participants; [3]", "value": "6 (27) n (%)"},
      {"measurement": "Hypersensitivity (allergy symptoms)", "setting": "healthy participants; [3]", "value": "0 n (%)"},
      {"measurement": "Nasopharyngitis", "setting": "healthy participants; [3]", "value": "0 n (%)"},
      {"measurement": "Nausea", "setting": "healthy participants; [3]", "value": "3 (14) n (%)"},
      {"measurement": "Oropharyngeal pain", "setting": "healthy participants; [3]", "value": "0 n (%)"},
      {"measurement": "Pain in extremity", "setting": "healthy participants; [3]", "value": "0 n (%)"},
      {"measurement": "Participants with any AE", "setting": "healthy participants; [3]", "value": "12 (55) n (%)"},
      {"measurement": "Pyrexia", "setting": "healthy participants; [3]", "value": "0 n (%)"},
      {"measurement": "Rash", "setting": "healthy participants; [3]", "value": "0 n (%)"},
      {"measurement": "Vomiting", "setting": "healthy participants; [3]", "value": "1 (5) n (%)"},
      {"measurement": "AEs of moderate intensity", "setting": "healthy participants; 300-400 mg bid repeat dose", "value": 9, "unit": "AEs"},
      {"measurement": "AEs of severe intensity", "setting": "healthy participants; 300-400 mg bid repeat dose", "value": 2, "unit": "AEs"},
      {"measurement": "Diarrhoea", "setting": "healthy participants; [4]", "value": "1 (2) n (%)"},
      {"measurement": "Dizziness", "setting": "healthy participants; [4]", "value": "6 (11) n (%)"},
      {"measurement": "Fatigue", "setting": "healthy participants; [4]", "value": "2 (4) n (%)"},
      {"measurement": "Hypersensitivity (allergy symptoms)", "setting": "healthy participants; [4]", "value": "2 (4) n (%)"},
      {"measurement": "Nasopharyngitis", "setting": "healthy participants; [4]", "value": "6 (11) n (%)"},
      {"measurement": "Nausea", "setting": "healthy participants; [4]", "value": "4 (7) n (%)"},
      {"measurement": "Oropharyngeal pain", "setting": "healthy participants; [4]", "value": "2 (4) n (%)"},
      {"measurement": "Pain in extremity", "setting": "healthy participants; [4]", "value": "0 n (%)"},
      {"measurement": "Participants with any AE", "setting": "healthy participants; [4]", "value": "25 (46) n (%)"},
      {"measurement": "Pyrexia", "setting": "healthy participants; [4]", "value": "2 (4) n (%)"},
      {"measurement": "Rash", "setting": "healthy participants; [4]", "value": "1 (2) n (%)"},
      {"measurement": "Vomiting", "setting": "healthy participants; [4]", "value": "3 (6) n (%)"},
      {"measurement": "Headache", "setting": "healthy participants; 300-400 mg bid repeat dosing, N = 54, listed as BIIB074, hydrochloride", "value": "11 (20) n (%)"},
      {"measurement": "Tolerability", "setting": "healthy participants; 300-400 mg bid, 36 days", "value": "well tolerated"},
      {"measurement": "ECG changes", "setting": "healthy participants; day 1-35", "value": "no clinically significant ECG changes"},
      {"measurement": "Participants withdrawn due to AEs while on BIIB074", "setting": "healthy participants; of 60 enrolled", "value": 5, "unit": "participants"},
      {"measurement": "Serious AEs", "setting": "healthy participants; whole study", "value": "No serious AEs"}
    ]}
  ]
}
